Reference: PubChem BioAssay (NCI)
Where “and” joins values, the source holds several entries; their conditions need not be identical. Equal values may be shown once.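 The compound was tested at five concentrations on cells cultured in 96-well plates, with a 48-hour exposure period. GI50 marks 50% less growth. The concentration for full growth arrest is given as TGI.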

How the values were obtained:
Assay in all cases: inhibition of tumour cell growth, NCI panel, 48 h
HL-60(TB) leukemia = tested on: HL-60(TB) leukemia
K-562 leukemia = tested on: K-562 leukemia
M14 melanoma = tested on: M14 melanoma
OVCAR-8 ovarian = tested on: OVCAR-8 ovarian
RPMI-8226 leukemia = tested on: RPMI-8226 leukemia
SF-295 CNS = tested on: SF-295 CNS
SK-MEL-5 melanoma = tested on: SK-MEL-5 melanoma
U251 CNS = tested on: U251 CNS
NCI-H226 lung = tested on: NCI-H226 lung
DU-145 prostate = tested on: DU-145 prostate

| Structure (SMILES) | TGI (HL-60(TB) leukemia) | GI50 (K-562 leukemia) [µM] | TGI (K-562 leukemia) [µM] | GI50 (M14 melanoma) [µM] | TGI (M14 melanoma) | GI50 (OVCAR-8 ovarian) | TGI (OVCAR-8 ovarian) | GI50 (RPMI-8226 leukemia) [µM] | TGI (RPMI-8226 leukemia) | TGI (SF-295 CNS) | TGI (SK-MEL-5 melanoma) | TGI (U251 CNS) | TGI (NCI-H226 lung) | GI50 (SF-295 CNS) | GI50 (NCI-H226 lung) [µM] | GI50 (SK-MEL-5 melanoma) [µM] | GI50 (U251 CNS) [µM] | GI50 (DU-145 prostate) [µM] | TGI (DU-145 prostate) [µM] | GI50 (HL-60(TB) leukemia) [µM] |
| --- | --- | --- | --- | --- | --- | --- | --- | --- | --- | --- | --- | --- | --- | --- | --- | --- | --- | --- | --- | --- |
| O=C1[C@@H]2C(c3ccc(Br)cc3)=NO[C@@H]2C(=O)N1c1ccc(Cc2ccc(N3C(=O)[C@H]4C(c5ccc(Br)cc5)=NO[C@H]4C3=O)cc2)cc1 | > 3.48 µM | > 40 | > 40 | > 40 | > 40 µM | > 40 µM | > 40 µM | > 40 | > 40 µM | > 3.48 µM | > 3.48 µM | > 3.48 µM | – | – | – | – | – | – | – | – |
| CN=c1ss/c(=N\C(=S)N(C)C)n1C | > 100 µM | – | > 100 | – | > 100 µM | – | > 100 µM | – | > 100 µM | > 100 µM | > 100 µM | > 100 µM | > 100 µM | – | – | – | – | – | – | – |
| COc1cc(C2c3cc4c(cc3[C@@H](NCCN(C)C)C3COC(=O)[C@H]23)OCO4)cc(OC)c1O (some centres undefined) | 0.124 µM and 0.121 µM | – | – | – | 1.61 µM and 2.31 µM | 0.265 µM and 1.08 µM | 1.72 µM and 2.72 µM | – | > 100 µM and 12 µM | 1.05 µM and 1.66 µM | 1.09 µM and 1.55 µM | 0.365 µM and 1.33 µM | 0.0481 µM and 0.152 µM | 0.0652 µM and 0.15 µM | – | – | – | – | – | – |
| C[C@H]1CC[P+](Cc2ccccc2)(c2ccccc2)C1 (some centres undefined) | > 100 µM | – | > 100 | – | > 100 µM | – | > 100 µM | – | > 100 µM | > 100 µM | 89.9 µM | > 100 µM | > 100 µM | – | – | – | – | – | – | – |
| NC(N)=N/N=C/c1c(-c2ccsc2)nc2n1CCS2 | – | 22.2 | 65.8 | 15.1 | 29.1 µM | 49 µM | > 100 µM | 31.9 | > 100 µM | > 100 µM | 41.4 µM | 35.7 µM | 40.1 µM | > 100 µM | 13 | 20 | 14.6 | – | – | – |
| Nc1nncc2c1c(Br)cn2C1OC(CO)C(O)C1O (centres undefined) | > 100 µM | – | > 100 | – | > 100 µM | – | – | – | > 100 µM | > 100 µM | > 100 µM | > 100 µM | > 100 µM | – | – | – | – | – | – | – |
| CN(C)CCNC(=O)c1cccc2c1nc(-c1ccc(F)cc1)c1ccccc12 | 10.9 µM | – | 11.7 | – | 18.7 µM | – | 18.2 µM | – | – | 19.3 µM | 11 µM | 16.5 µM | 9.31 µM | – | – | – | – | – | – | – |
| CC(=O)C1CCN(c2ccccc2)C1 (centres undefined) | > 100 µM | – | > 100 | – | > 100 µM | – | > 100 µM | – | – | > 100 µM | > 100 µM | > 100 µM | > 100 µM | – | – | – | – | – | – | – |
| COc1cc2oc(-c3cccc(C(=O)Nc4ccc(Cl)cc4)c3)cc(=O)c2c(OC)c1OC | – | 2.77 | > 100 | 1.38 | 4.73 µM | 3.44 µM | > 100 µM | 0.49 | 3.79 µM | 3.51 µM | 2.68 µM | > 100 µM | 94.8 µM | 1.47 µM | 2.24 | 1.28 | 4.08 | 2.85 | > 100 | – |
| CCN1CCN(c2nc(C)cc(N(CCCNc3ccnc4cc(Cl)ccc34)Cc3ccc4c(c3)OCO4)n2)CC1 | 3.96 µM | 0.361 | 1.51 | 1.8 | 3.38 µM | 2.12 µM | 6.06 µM | 0.794 | 3.02 µM | 3.39 µM | 3.05 µM | 3.17 µM | 24.4 µM | 1.81 µM | 5.36 | 1.66 | 1.56 | – | – | 2.11 |
| CC(C)(C)c1cc(CCC(=O)Nc2ccc(Cl)cc2)[nH]c(=S)n1 | > 100 µM | – | > 100 | – | > 100 µM | – | > 100 µM | – | > 100 µM | > 100 µM | > 100 µM | > 100 µM | > 100 µM | – | – | – | – | – | – | – |
| COC1C2C[C@@H](O)CCC2C(C(=O)OCCl)C[C@H]1O (some centres undefined) | > 100 µM | – | > 100 | – | > 100 µM | – | > 100 µM | – | > 100 µM | – | > 100 µM | > 100 µM | > 100 µM | – | – | – | – | – | – | – |
| NC(=O)c1ccc2c(c1)-c1nc-2nc2[n-]c(nc3nc(nc4[n-]c(n1)c1ccc(C(N)=O)cc41)-c1ccc(C(N)=O)cc1-3)c1ccc(C(N)=O)cc21.[Co+2] | > 50 µM | 46.6 | > 50 | 26 | > 50 µM | > 50 µM | > 50 µM | > 50 | > 50 µM | > 50 µM | > 50 µM | > 50 µM | > 50 µM | > 50 µM | > 50 | > 50 | > 50 | – | – | 7.12 |
| Cn1cc(/C=C\[N+](=O)[O-])c2ccccc21 | – | 34.8 | > 100 | 37.1 | > 100 µM | 26.9 µM | 86.1 µM | 16.1 | 53.4 µM | > 100 µM | 31.6 µM | > 100 µM | > 100 µM | 52.9 µM | 53.3 | 14.8 | 36.5 | 29.7 | 81.7 | – |
| COc1cccc(/C=C/C(=O)c2ccc3cc(OC)ccc3c2)c1 | > 50 µM | 9.13 | > 50 | 13.6 | 41.3 µM | 10.6 µM | 33.3 µM | 10.8 | 34.8 µM | 22.1 µM | 18.2 µM | 42 µM | – | 9.58 µM | – | 9.21 | 14 | 8.54 | 17.5 | 17.5 |
| NC1NC=NC2C1N=CN2C1OC(CO)C2[O][Sn][O]C21 (centres undefined) | > 100 µM | > 100 | > 100 | > 100 | > 100 µM | > 100 µM | > 100 µM | > 100 | > 100 µM | > 100 µM | > 100 µM | > 100 µM | > 100 µM | > 100 µM | > 100 | > 100 | > 100 | – | – | > 100 |
| CC(C)N(C(=O)C12C3C4C1C1C2C3C41C#N)C(C)C (centres undefined) | > 59 µM | – | > 100 | – | > 100 µM | – | > 100 µM | – | > 68.1 µM | > 100 µM | > 100 µM | > 100 µM | > 100 µM | – | – | – | – | – | – | – |
